According to patent US20140228427A1, “PHARMACEUTICAL COMPOSITION CONTAINING WOGONIN AS AN ACTIVE INGREDIENT FOR PREVENTING OR TREATING ASTHMA” (KOREA RESEARCH INSTITUTE OF BIOSCIENCE AND BIOTECHNOLOGY, priority 2011, published 2014):

Assays:
[1] = tested on: airway hypersensitivity in ovalbumin-sensitized Balb/c mice; experiment: Measurement of airway hypersensitivity (Penh, methacholine inhalation, one chamber plethysmography); type: in vivo; settings: methacholine 12.5 mg/ml; OVA group 2.2917 ± 0.3070; mean±S.E.
IgE = experiment: Measurement of IgE in serum and bronchoalveolar lavage fluid by enzyme immunoassay; type: in vivo, Balb/c mice; settings: mean±S.E.; for Total IgE Conc. in bronchoalveolar lavage fluid: OVA group 19.02 ± 2.43; for Total IgE Conc. in Serum: OVA group 23139.51 ± 484.45
Protocol: (§1) To investigate the effect of the Wogonin of the present invention on asthma, 6-week old female Balb/c mice in the weight of about 20 g were used as test animals. After spending one week for adaptation, basic physical examination was performed to select normal ones.
(§2) The test animal was sensitized with 200 μl of phosphate buffer (pH 7.4) containing 2 mg of aluminum hydroxide (A8222, Sigma, St. Louis, Mo.) and 20 μg of ovalbumin (A5503, Sigma, St. Louis, Mo.) by intraperitoneal injection at 2 weeks interval. 1% ovalbumin was inhaled in the mouse for 30 minutes by using an ultrasonic nebulizer from the 28th day to the 30th day after the first intraperitoneal injection of ovalbumin (OVA).
(§3) 24 hours after the final antigen treatment, airway hypersensitivity was measured. 48 hours later, a lethal dose of pentobarbital (Entobar, Hanlim Pharm. Co. Ltd., Seoul, Korea) was administered to the mouse. Body weight was measured and tracheostomy was performed. Bronchoalveolar lavage was performed with 1.2 ml of saline, followed by sampling. The normal control group (NC) was administered with ovalbumin but not inhaled, the asthma induced group (OVA) was administered with ovalbumin and inhaled to induce bronchial asthma, the comparative group 1 (DEXA) was orally administered with dexamethasone (3 mg/kg, PO: D4902, Sigma, St. Louis, Mo.) one hour before inhaling ovalbumin, the comparative group 2 (Monte) was orally administered with montelukast (30 mg/kg, PO) one hour before inhaling ovalbumin, and the experimental group (Wogonin) was orally administered with the Wogonin of Example 1 (30 mg/kg, PO) one hour before inhaling ovalbumin. Each group was composed of 5 white mice.
To investigate the effect of the Wogonin of the present invention on asthma, the inventors measured IgE concentration in serum and bronchoalveolar lavage fluid which is related to the severity of asthma by enzyme immunoassay.
Serum and bronchoalveolar lavage fluid taken from each group were loaded in […] plate on which 0.1M NaHCO3 buffer (pH 8.3) containing 20 μg/ml of ovalbumin (OVA) was coated at 4° C. for overnight. Non-specific reaction was blocked by PBS containing 1% bovine serum albumin. Serum sample was diluted at the ratio of 1:400, followed by reaction at room temperature for 2 hours.
After washing the plate well, the sample was reacted with anti-mouse IgE monoclonal antibody diluted at the ratio of 1:300 for 2 hours. HRP-conjugated goat anti-rat IgG polyclonal A was diluted at the ratio of 1:4000, which was added thereto for further reaction at room temperature for 1 hour, followed by washing.
For color development, 3.3′5.5′-tetramethylbenzidine substrate was added, followed by measuring OD650.

IL-13 = experiment: Analysis of cytokine mRNA (RT-PCR), IL-13; type: in vivo, Balb/c mice; settings: for Relative Densitometric Value, RDV, IL-13: NC = 100%, OVA group 187.35 ± 7.49
Protocol: as §1, §2, §3
(§4) To investigate the effect of the Wogonin of the present invention on asthma, asthma related cytokine mRNA was measured.
(§5) RNA was isolated from the lung by using trizol (Invitrogen) in order to measure the expressions of Th2 cytokines such as IL-4, IL-6, and IL-13 in the supernatant of bronchoalveolar lavage fluid taken from each group, followed by reverse transcriptase polymerase chain reaction (quantitative RT-PCR, Promega, Wis.). When the lowest expression was indicated as 1, relative densitometric value (RDV) was produced by that to evaluate the expression inhibition effect.

[2] = tested on: infiltration of inflammatory cells around bronchiolus and blood vessels; experiment: Histopathological test of the lung (H&E, inflammatory index); type: in vivo, Balb/c mice; settings: index scale 0-4; for Inflammatory Index around bronchiolus: OVA group 3.60 ± 0.22; for Inflammatory Index around blood vessels: OVA group 3.80 ± 0.18
Protocol: as §1, §2, §3
The infiltration of inflammatory cells including eosinophils, neutrophils, and macrophages is observed in the bronchus sensitized with an antigen. To investigate the effect of the Wogonin of the present invention on asthma, the inventors performed histopathological test with the lung without bronchoalveolar lavage.
The lung extracted without bronchoalveolar lavage from each group was fixed with formalin and embedded in paraffin. Then, 4 μm thick permanent tissue sections were prepared, followed by H&E staining. Upon completion of H&E staining, inflammatory index was measured from 5 random regions of each section, and then mean value was calculated.

[3] = Body weight of ovalbumin-induced asthma mice; type: in vivo, Balb/c mice; settings: OVA asthma induced mice; Wogonin 30 mg/kg PO, dexamethasone 3 mg/kg PO, montelukast 30 mg/kg PO; asthma induced group 19.72±0.53, normal control 21.60±0.25
Protocol: as §1, §2, §3

[4] = tested on: airway hypersensitivity in ovalbumin-sensitized Balb/c mice; experiment: Measurement of airway hypersensitivity (Penh, methacholine inhalation, one chamber plethysmography); type: in vivo; settings: for Penh value: mean±S.E.
Protocol: as §1, §2, §3
The effect of the Wogonin of the present invention on asthma related airway hypersensitivity was evaluated by measuring enhanced pause (Penh) which presents the grade of airway obstruction calculated by measuring airway resistance using one chamber plethysmorgraphy (All Medicus, Seoul). For the measurement of Penh, base value was measured under normal breathing condition and then PBS was inhaled by using an ultrasonic nebulizer for 3 minutes, followed by measuring for 3 minutes. Then, methacholine (A2251, Sigma, St. Louis, Mo.), the […], which is generally used to diagnose bronchial asthma, was inhaled to the animal with raising the concentration gradually (12, 25, and 50 mg/ml), followed by measuring Penh. The ratio of Penh increased over the concentrations of methacholine inhaled was presented as % and baseline Penh (saline challenge) was presented as 100%.

IL-6 = experiment: Analysis of cytokine mRNA (RT-PCR), IL-6; type: in vivo, Balb/c mice; settings: for Relative Densitometric Value, RDV, IL-6: NC = 100%, OVA group 128.20 ± 6.51
Protocol: as §1, §2, §3, §4, §5

reactive oxygen species = experiment: Measurement of reactive oxygen species generation (DCFH-DA fluorescence) in bronchoalveolar lavage fluid; type: in vivo, Balb/c mice; settings: for Reactive oxygen species generation, DCF fluorescence: NC = 100%, OVA group 192.89 ± 27.36; for reduction of reactive oxygen species generation compared with the asthma induced group: vs asthma induced group
Protocol: as §1, §2, §3
The increase of oxidative stress results in the decrease of reaction to steroids. To investigate the effect of the Wogonin of the present invention on asthma, the present inventors measured the generation of reactive oxygen species which is apparent in asthma like in other inflammatory diseases.
A portion of bronchoalveolar lavage fluid of each group was washed with PBS, to which 10 μM of 2,7-Dichlorofluorescein diacetate (DCFH-DA, 35845, Sigma, St. Louis, Mo.), one of the fluorescent reagents, was added. The mixture stood at room temperature for 10 minutes in the darkness, and then measured fluorescence with a spectrofluorometer (Ex=480 nm Em=522 nm).

IL-4 = experiment: Analysis of cytokine mRNA (RT-PCR), IL-4; type: in vivo, Balb/c mice; settings: for Relative Densitometric Value, RDV, IL-4: NC = 100%, OVA group 159.91 ± 14.87
Protocol: as §1, §2, §3, §4, §5

[5] = tested on: inflammatory cells (eosinophils and other inflammatory cells) in bronchoalveolar lavage fluid; experiment: Analysis of inflammatory cells in bronchoalveolar lavage fluid; type: in vivo, Balb/c mice; settings: for Cell Number, other cells: OVA group 452.55 ± 93.48
Protocol: as §1, §2, §3
To investigate the effect of the Wogonin of the present invention on asthma, the present inventors measured the increase or decrease of inflammatory cell number which is believed to be involved in asthma.
As soon as bronchoalveolar lavage fluid was recovered from each group, it was stained with Trypan blue. Then, the number of cells, except dead cells, was counted by hemocytometer. The sample was smeared with Cytospin II, followed by Diff-Quick staining (Sysmex, Switzerland) to calculate the numbers of eosinophils and other inflammatory cells.

[6] = methacholine 0 mg/ml, OVA group 0.6299 ± 0.0617
[7] = methacholine 25 mg/ml, OVA group 6.8642 ± 0.8313
[8] = methacholine 50 mg/ml, OVA group 9.1854 ± 1.6230

SMILES | Penh value [1] | Total IgE Conc. in bronchoalveolar lavage fluid (IgE) [ng/mL] | Total IgE Conc. in Serum (IgE) [ng/mL] | Relative Densitometric Value, RDV, IL-13 (IL-13) [%] | Inflammatory Index around bronchiolus [2] | Inflammatory Index around blood vessels [2] | average body weight [3] [g] | Penh value [4, 6] | Penh value [4, 7] | Penh value [4, 8] | Relative Densitometric Value, RDV, IL-6 (IL-6) [%] | Reactive oxygen species generation, DCF fluorescence (reactive oxygen species) [%] | reduction of reactive oxygen species generation compared with the asthma induced group (reactive oxygen species) [%] | Relative Densitometric Value, RDV, IL-4 (IL-4) [%] | Cell Number, eosinophils ([5]; OVA group 71.75 ± 4.63) | Cell Number, other cells [5] | Cell Number, total cells ([5]; OVA group 524.30 ± 43.22) | other results
C[C@@H]1C[C@H]2[C@@H]3CCC4=CC(=O)C=C[C@]4(C)[C@@]3(F)[C@@H](O)C[C@]2(C)[C@@]1(O)C(=O)CO [DEXA, dexamethasone] | 1.6750 ± 0.0820 | 10.15 ± 1.38 | 15991.36 ± 1194.92 | 176.55 ± 16.13 | 1.75±0.19 | 1.50 ± 0.22 | 21.04 ± 0.35 | 0.6486 ± 0.1526 | 1.9963 ± 0.1577 | 2.7864 ± 0.4293 | 121.37 ± 6.78 | 116.55 ± 9.28 | 39.58 | 139.60 ± 13.34 | 8.24 ± 1.31 ×10^3 cell/mouse | 81.00 ± 10.40 ×10^3 cell/mouse | 89.24 ± 6.98 ×10^3 cell/mouse | Inflammatory Index around blood vessels ([2]; listed as comparative control group 1): 1.50±0.22; Cell Number, eosinophils ([5]; OVA group 71.75 ± 4.63, listed as dexamethasone): 8.24±1.31 ×10^3 cell/mouse; Cell Number, total cells ([5]; OVA group 524.30 ± 43.22, listed as dexamethasone): 89.24±6.98 ×10^3 cell/mouse
CC(C)(O)c1ccccc1CC[C@@H](SCC1(CC(=O)O)CC1)c1cccc(/C=C/c2ccc3ccc(Cl)cc3n2)c1 [Monte, montelukast] | 1.5249 ± 0.2432 | 10.15 ± 1.58 | 17176.54 ± 2542.98 | 157.67 ± 16.60 | 2.25±0.22 | 2.50 ± 0.25 | 21.08 ± 0.36 | 0.4525 ± 0.0313 | 2.1006 ± 0.4758 | 2.3576 ± 0.1741 | 112.39 ± 7.16 | 104.48 ± 9.80 | 45.84 | 138.86 ± 19.52 | 27.88 ± 2.80 ×10^3 cell/mouse | 130.12 ± 9.22 ×10^3 cell/mouse | 167.68 ± 8.80 ×10^3 cell/mouse | Inflammatory Index around blood vessels ([2]; listed as comparative control group 2): 0.50±0.25; Cell Number, eosinophils ([5]; OVA group 71.75 ± 4.63, listed as montelukast): 27.88±2.80 ×10^3 cell/mouse; Cell Number, total cells ([5]; OVA group 524.30 ± 43.22, listed as montelukast): 167.68±8.80 ×10^3 cell/mouse
COc1c(O)cc(O)c2c(=O)cc(-c3ccccc3)oc12 [Wogonin] | 1.7059 ± 0.3028 | 12.10 ± 1.87 | 19418.52 ± 1332.101 | 143.68 ± 14.08 | 1.00±0.28 | 1.40±0.22 | 21.92 ± 0.43 | 0.4261 ± 0.0069 | 2.0166 ± 0.2248 | 2.6055 ± 0.2280 | 106.87 ± 10.47 | 60.91 ± 4.14 | 68.42 | 118.11 ± 29.80 | 32.24±8.84 ×10^3 cell/mouse | 140.28 ± 26.24 ×10^3 cell/mouse | 172.52±29.29 ×10^3 cell/mouse | suppression of IL-13 expression compared with the asthma induced group (IL-13; lung, vs asthma induced group): 23.30%; Penh value over the increase of methacholine concentration ([4]; range over methacholine concentrations): 1.7059-2.6055; suppression of IL-6 expression compared with the asthma induced group (IL-6; lung, vs asthma induced group): 16.64%; suppression of IL-4 expression compared with the asthma induced group (IL-4; lung, vs asthma induced group): 26.14%
